Data taken from patent US9759725B2, “Treatment-induced damage to the tumor micro-environment promotes cancer therapy resistance through extracellular proteins” (Fred Hutchinson Cancer Research Center, priority 2012, dated 2017).
“Also recorded” adds a separate entry of the source. Blank lines part the entries; values can stand above or below the molecule they belong to.

Columns and labels:
prostate cancer cells [1] = test: Chemoresistance (viability) assay with MIT in fibroblast conditioned medium; assay type: cell-based, human
Experimental: Chemoresistance assays were performed using epithelial cells cultured with either DMEM and low serum (0.5% FCS) (abbreviated as “DMEM”), or conditioned medium (CM) generated from PSC27, […] or OVF28901 cells expressing vector controls, WNT16B, or siRNAs. […] Cell viability was then assayed, and the percentage of viable cells was calculated by comparing each experiment to vehicle-treated cells. Each assay was repeated a minimum of 3 times with results reported as mean±s.e.m. For chemoresistance assays, various neoplastic epithelial cells were cultured with either DMEM of low serum (0.5% FBS) only (abbreviated as “DMEM”), or CM generated from PSC27, HBF1023 or OVF28901 in various states (e.g., WNT16B overexpression, WNT16B knockdown, irradiated). […] Cell viability was assayed by MTS or direct counting with trypan blue, and the percentage of viable cells was calculated by normalizing absorbance of each experiment to untreated cells. To assess the influence of WNT16B across a range of MIT concentrations, a series of drug concentrations were applied bracketing the IC50 dose, with percent survival plotted against MIT dose at a 3-day time point. […] Luciferase assays were performed using a Dual-Luciferase Reporter Assay kit, and fold induction for each cell line was calculated as normalized relative light units of TOPFLASH divided by those of FOPFLASH. […]

prostate cancer cells [2] = test: Trans-well invasion of prostate cancer cells in fibroblast conditioned medium; assay type: cell-based, human; conditions: 24 h of treatment
Experimental: All assays were performed at least three times and reported as mean values. Assays of cell proliferation were performed with the CellTiter96® AQueous One Solution Cell Proliferation Assay (MTS) with signals captured using a 96-well plate reader or by direct counting using a hemacytometer. For trans-well migration and invasion assays, serum-starved cells in serum-free medium were added to the top chambers of Cultrex 24-well Cell Migration Assay plates (8 μm size) coated with or without basement membrane extract (BM) prepared as 0.5× of stock solution. CM from fibroblasts or regular epithelial media containing 10% fetal calf serum (FCS) were added to the bottom chambers. Migrating or invading cells in the bottom chambers were stained and plate absorbance was recorded at 485/520 nm emission. Each assay was performed in triplicate and measured at 24 hour time points over 3 days and presented as the average absorbance of migrating cells and invading cells, with human HeLA cervical cancer cell line (ATCC) used as a reference positive control. […] Luciferase assays were performed using a Dual-Luciferase Reporter Assay kit, and fold induction for each cell line was calculated as normalized relative light units of TOPFLASH divided by those of FOPFLASH. […]

prostate cancer cells [3] = test: Proliferation of prostate cancer cells in fibroblast conditioned medium; assay type: cell-based, human; conditions: cell numbers 72 hours after treatment
Experimental: The cultures were incubated for 3 days after which cells were detached with trypsin and the total cell number was determined by direct counting with hemacytometer. The PSC27/BPH1-GFP proportion was determined on a FACScan using GFP fluorescence as a marker for BPH1-GFP cells. […] The supernatant was harvested, filtered, concentrated and either stored frozen at −80° C. or applied immediately. BPH1-GFP, PC3 and other cell lines were seeded in conditioned medium or fresh DMEM+0.5% FBS, and grown for specific time periods and the total number of cells was determined by direct counting. All assays were performed at least three times and reported as mean values. Assays of cell proliferation were performed with the CellTiter96® AQueous One Solution Cell Proliferation Assay (MTS) with signals captured using a 96-well plate reader or by direct counting using a hemacytometer. […] Migrating or invading cells in the bottom chambers were stained and plate absorbance was recorded at 485/520 nm emission. Each assay was performed in triplicate and measured at 24 hour time points over 3 days and presented as the average absorbance of migrating cells and invading cells, with human HeLA cervical cancer cell line (ATCC) used as a reference positive control. […]

PC3 cells [4] = test: Caspase 3/7 apoptosis assay of PC3 cells exposed to MIT; assay type: cell-based, human; conditions: 24 hour of MIT exposure (IC50)
From the text: For apoptosis assays, 0.2×10^6 PC3 cells were dispensed into 6-well culture plates and co-cultured with media conditioned from PSC27 sublines. […] For the morphological analysis, bright field pictures were taken for PC3 cells with inverted phase-contrast microscopy.

epithelial cells = test: EMT-associated gene/protein expression in epithelial cells exposed to WNT16B conditioned medium; assay type: cell-based, human; conditions: epithelial cells in WNT16B fibroblast CM
PC#/PSC27 cells = test: Subcutaneous grafts of PC#/PSC27 cells treated with systemic RAPA and MIT; assay type: in vivo; conditions: RAPA used with MIT
[5] = test system: primary prostate fibroblasts (PSC27 cells)
Experimental: After treatment, the cells were rinsed 3 times with PBS and left to recover for 3 days in PSC medium.
Cells growing on coverslips were rinsed, subjected to fixation in 4% paraformaldehyde and permeabilization with 0.1% Triton-X100 prior to immunostaining Primary mouse monoclonal anti-phospho-Histone H2A.X (Ser139) (clone JBW301) and secondary antibody Alexa Fluor® 488 (or 594)-conjugated F(ab′)2 goat anti-mouse IgG were sequentially applied. Nuclei were counterstained with 2 μg/ml of 4′,6-diamidino-2-phenylindole (DAPI) and coverslips were mounted onto glass slides. Upon visual examination of the DNA damage extent with immunofluorescence microscopy, DDR foci were recorded with a 4-category counting strategy, namely 4 classes: 0 foci, 1 to 3 foci, 4 to 10 foci, and >10 foci. Data from each cell line/treatment were averaged from a pool of 3 independent fields counting 100 nuclei per pool.

Wnt16b = test: Systemic effect of MIT on Wnt16b expression in mouse organs (Western immunoblot); assay type: in vivo; conditions: mice, three MIT treatments over eight weeks
Experimental: To determine the systemic effects of MIT treatment on Wnt16b expression, parallel experiments involved administering MIT or vehicle as per the treatment schema above, to cohorts of mice (n=6) without xenografts. At the completion of the 8-week treatment regimen, mice were euthanized and various tissues were rapidly resected and snap frozen or fixed in formalin. Following protein isolations, Western immunoblot analysis was performed for Wnt16b expression, as described above.

PC3 cells [6] = test: In vivo chemoresistance study: subrenal capsule xenografts treated with three cycles of MIT; set-up: species or system mouse
Experimental: All animal studies were performed in accordance with protocols approved by the Institutional Animal Care and Use Committee (IACUC) of Fred Hutchinson Cancer Research Center, and were carried out in accordance with the NIH Guide for laboratory animals. Mouse care/welfare and veterinary oversight were provided by the center animal care. ICR SCID mice (Taconic, Inc.) at an age of approximately 6 weeks (25 g body weight) were used. Rat tail collagen (high concentration, type I) was prepared before the ice-cold collagen solution was neutralized and adjusted to the proper osmolarity by adding a mixture of NaOH and ×10 PBS. To prepare tissue recombinants, fibroblasts (PSC27 strain) and epithelial cells (PC3, BPH1 or MDA-MB-231) were mixed at a ratio of 1:1, with each recombinant comprised of 250,000 cells of each line. After polymerization, the cell/collagen mixture was overlaid with growth medium and incubated at 37° C. for 1 hour before implantation.
Xenografting was performed under isoflurane anesthesia. A pocket beneath the back skin was formed using surgical scissors, with an oblique incision (<1 cm) made on the capsule surface parallel and adjacent to the long axis of each kidney. Cells were injected under the capsule with a blunt 25-gauge needle and a glass Hamilton syringe via a transrenal injection, forming a starting tumor with a volume of 1 to 2 mm^3. The kidney was returned to the retroperitoneal space and the skin was closed with surgical staples. The growth of xenografts was assessed at weekly intervals using ultrasound instruments. Animals were sacrificed at 2-8 weeks post transplantation, based on the tumor burden and pathological progression of tested animals. Upon dissection, tumor volume (V) was measured and calculated according to the tumor length (1) and width (w) by the following formula: V=(π/6)×((l+w)/2)^3 (Anand et al., Nat. Genet 31:301-305, 2002). Tumors were snap-frozen or processed conventionally for formalin fixation. Resulting sections were used for hematoxylin/eosin staining, and immunostaining for selected gene expression markers.
For chemoresistance studies, ICR SCID mice received subrenal capsule xenografts by implantation according to the procedure described above. After surgery, mice were given standard laboratory diets and water ad libitum for 2 weeks, to allow tumor uptake and growth initiation. Starting from the 3rd week (when tumor sizes reached from about 4 to about 8 mm in diameter), mice received Mitoxantrone at a dose of 0.2 mg/kg by i.p. injection, or vehicle control, on day 1 of week 3, week 5, and week 7 (Alderton et al., Cancer Res. 52:194-201, 1992). Between 8 and 12 mice were randomly assigned to each study arm. A total regimen of 3 2-week cycles was administered. After the final treatment cycle the mice were sacrificed, kidneys were removed for tumor measurement and histological analysis. The cumulative Mitoxantrone dose received per mouse was 0.6 mg/kg. Each experimental arm comprised 5-8 mice per treatment cohort.

PC3 cells [7] = test: Acute in vivo response to MIT: cleaved caspase 3 IHC in xenografts; set-up: species or system mouse; conditions: 24 hours after MIT
Experimental: For assessments of the acute effects of chemotherapy, mice harboring xenografts of PC3 cells combined with PSC27 fibroblasts were treated with Mitoxantrone 0.2 mg/kg by i.p. injection, or vehicle control. Xenografts were collected 24 hour after treatment and tissues were processed for IHC. Apoptosis was assessed by staining with anti-caspase 3 antibody (cleaved, BioCare Medical). On adjacent sections, immunostaining with anti-γH2AX (Upstate) was performed to quantitate cells with DNA-damage.

WNT16B promoter = WNT16B promoter luciferase reporter assay; assay type: cell-based, human; conditions: compared to untreated cells
From the text: The immediate 5′ upstream sequences containing putative NF-κB binding elements of the WNT16B gene were amplified from genomic DNA extracted from PSC27 cells by a DNeasy Blood and Tissue kit (QIAGEN). PCR products were cloned into pCR2.1-TOPO vector (Invitrogen) and each insert was sequenced for confirmation. PCR fragments were then double-digested and subcloned into a reporter luciferase vector pGL4.22 vector. Constructs containing one or multiple mutant NF-κB binding sites were generated from the reporter vector series by site-directed mutagenesis. The NAT11-Luc2CP-IRES-nEGFP control construct that contains large copy numbers of NF-κB binding sequences and an optimized IL-2 minimal promoter as part of NFκB-activated transgene (NAT) system was kindly provided by Dr. Hatakeyama (Hokkaido University). All constructs were confirmed by DNA sequencing in both directions. Reporter vectors were co-transfected with pRL-TK vector for transfection efficiency controls and internal normalization for gene expression measurements. Cells were either treated with 20 ng/ml TNF-α for 90 min, exposed to 10 Gy γ-irradiation or 1 μM Mitoxantrone for 1 day. […] Luciferase activity was measured using the Luciferase Assay System and normalized luciferase activities were calculated as light units normalized to renilla luciferase activity present in each specimen.

Molecule: Oc1nc(-c2ccc(C(F)(F)F)cc2)nc2c1CSCC2 [XAV939]
- effects of PSC27-RAD-conditioned medium on promoting tumor cell survival (prostate cancer cells [1]): attenuated
- invasive effect of the PSC27-RAD DDSP (full DDSP) (prostate cancer cells [2]): markedly attenuated; also recorded: attenuates
- invasive response induced by WNT16B (prostate cancer cells [2]): completely suppressed; also recorded: suppresses
- proliferative effect of the PSC27-RAD DDSP (full DDSP CM) (prostate cancer cells [3]): markedly attenuated; also recorded: attenuates
- proliferative response induced by WNT16B (PSC27^WNT16B CM) (prostate cancer cells [3]): completely suppressed; also recorded: suppresses
- attenuation of MIT apoptotic response by PSC27^WNT16B-conditioned medium (PC3 cells [4]): blocked
- WNT16B-induced EMT-associated gene expression (epithelial cells): blocked

Molecule: CO[C@H]1C[C@@H]2CC[C@@H](C)[C@@](O)(O2)C(=O)C(=O)N2CCCC[C@H]2C(=O)O[C@H]([C@H](C)C[C@@H]2CC[C@@H](O)[C@H](OC)C2)CC(=O)[C@H](C)/C=C(\C)[C@@H](O)[C@@H](OC)C(=O)[C@H](C)C[C@H](C)/C=C/C=C/C=C/1C [RAPA, Rapamycin]
- reduction in tumor volumes (PC#/PSC27 cells): approximately 60%

Molecule: OO [hydrogen peroxide]
- number of γ-H2AX foci [5]: substantially increased

Molecule: O=C1c2c(O)ccc(O)c2C(=O)c2c(NCCNCCO)ccc(NCCNCCO)c21 [MIT, mitoxantrone]
- number of γ-H2AX foci [5]: substantially increased
- expression of WNT16B protein in prostates, breasts and ovaries (Wnt16b): induced
- tumor volumes, MIT vs no MIT (PC3 cells [6]; BPH-1 or PC3 plus PSC27^WNT16B or PSC27^C fibroblasts, three cycles of MIT): significantly reduced
- tumor volume after MIT (PC3 cells [6]; PC3 + PSC27^C+shRNA^C grafts): 20 mm^3
- tumor volume after MIT (PC3 cells [6]; PC3+PSC27-RAD grafts (300 mm^3 without MIT)): 55 mm^3
- tumor volume after MIT (PC3 cells [6]; PC3+PSC27^C grafts): 13 mm^3
- tumor volume after MIT (PC3 cells [6]; PC3+PSC27^WNT16B grafts): 78 mm^3
- tumor size, MIT-treated vs untreated mice (PC3 cells [6]; tumor cells with unirradiated PSC27 fibroblasts (PSC27^C)): substantially smaller
- apoptotic cells (cleaved caspase 3 IHC) (PC3 cells [7]; PC3+PSC27^C grafts): 34%
- apoptotic cells (cleaved caspase 3 IHC) (PC3 cells [7]; PC3+PSC27^WNT16B tumors): 14%

- WNT16B reporter activity (WNT16B promoter): induced
Molecule: TNF-α

Molecule: bleomycin
- number of γ-H2AX foci [5]: substantially increased
